Source: US11535611B2, “Pyrazolo[3,4-B]pyridines and imidazo[1,5-B]pyridazines as PDE1 inhibitors” (H. Lundbeck A/S, priority 2017, dated 2022)
Values belong to the compound of their own block, whether it stands above or below them.

Tests used:
Type in all cases: biochemical
PDE1A = PDE1A (Homo sapiens (Human), UniProt P54750); assay: PDE1 inhibition assay, PDE1A; conditions: for inhibition at 10 µM: @ 10 μM compound; for IC50: 15 nM tritium labelled cAMP, 1 hr at room temperature, SPA beads
Experimental: (§1) PDE1A, PDE1B and PDE1C assays were performed as follows: the assays were performed in 60 μL samples containing a fixed amount of the PDE1 enzyme (sufficient to convert 20-25% of the cyclic nucleotide substrate), a buffer (50 mM HEPES (4-(2-hydroxyethyl)-1-piperazineethanesulfonic acid) pH 7.6; 10 mM MgCl2; 0.02% Tween20), 0.1 mg/ml BSA (bovine serum albumin), 15 nM tritium labelled cAMP and varying amounts of inhibitors. Reactions were initiated by addition of the cyclic nucleotide substrate, and reactions were allowed to proceed for 1 hr at room temperature before being terminated through mixing with 20 μL (0.2 mg) yttrium silicate SPA beads (PerkinElmer). The beads were allowed to settle for 1 hour in the dark before the plates were counted in a Wallac 1450 Microbeta counter. The measured signals were converted to activity relative to an uninhibited control (100%) and IC50 values were calculated using XIFit (model 205, IDBS).

PDE1B = PDE1B (Homo sapiens (Human), UniProt Q01064); assay: PDE1 inhibition assay, PDE1B; conditions: for IC50: 15 nM tritium labelled cAMP, 1 hr at room temperature, SPA beads, read-out: PDE1 B, IC50
Experimental: as §1

PDE1C = PDE1C (Homo sapiens (Human), UniProt Q14123); assay: PDE1 inhibition assay, PDE1C; conditions: for IC50: 15 nM tritium labelled cAMP, 1 hr at room temperature, SPA beads, read-out: PDE1 C, IC50; for inhibition at 10 µM: @ 10 μM compound, read-out: PDE1 C, % inhibition @ 10 μM
Experimental: as §1

Sequence of PDE1A (P54750 whole entry): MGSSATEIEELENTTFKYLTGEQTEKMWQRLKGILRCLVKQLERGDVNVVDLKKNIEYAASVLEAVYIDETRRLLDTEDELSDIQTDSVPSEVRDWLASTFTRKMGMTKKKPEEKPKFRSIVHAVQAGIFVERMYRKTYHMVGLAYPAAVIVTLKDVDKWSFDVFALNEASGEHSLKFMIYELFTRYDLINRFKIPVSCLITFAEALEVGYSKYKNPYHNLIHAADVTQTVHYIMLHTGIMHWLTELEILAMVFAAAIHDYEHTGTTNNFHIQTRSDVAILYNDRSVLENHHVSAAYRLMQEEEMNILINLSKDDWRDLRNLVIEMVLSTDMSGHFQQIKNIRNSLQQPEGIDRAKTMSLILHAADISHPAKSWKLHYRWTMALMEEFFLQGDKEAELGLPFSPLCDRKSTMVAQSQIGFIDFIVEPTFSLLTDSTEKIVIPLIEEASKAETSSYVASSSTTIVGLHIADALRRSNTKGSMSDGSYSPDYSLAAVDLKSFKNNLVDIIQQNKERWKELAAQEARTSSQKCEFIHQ
Sequence of PDE1B (Q01064 whole entry): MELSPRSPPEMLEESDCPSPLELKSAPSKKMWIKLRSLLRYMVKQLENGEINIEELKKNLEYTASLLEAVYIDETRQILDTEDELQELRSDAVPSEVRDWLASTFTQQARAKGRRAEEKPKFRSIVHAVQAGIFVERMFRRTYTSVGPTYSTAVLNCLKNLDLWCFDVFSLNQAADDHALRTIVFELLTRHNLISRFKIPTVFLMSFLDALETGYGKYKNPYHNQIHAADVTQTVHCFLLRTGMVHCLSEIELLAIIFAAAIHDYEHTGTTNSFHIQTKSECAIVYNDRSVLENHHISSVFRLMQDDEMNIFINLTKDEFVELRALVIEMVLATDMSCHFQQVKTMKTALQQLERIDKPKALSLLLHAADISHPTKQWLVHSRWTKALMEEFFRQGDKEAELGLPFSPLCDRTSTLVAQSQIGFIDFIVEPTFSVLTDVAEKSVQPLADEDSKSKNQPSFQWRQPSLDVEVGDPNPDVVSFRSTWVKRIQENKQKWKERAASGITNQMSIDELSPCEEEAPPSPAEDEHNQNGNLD
Sequence of PDE1C (Q14123 whole entry): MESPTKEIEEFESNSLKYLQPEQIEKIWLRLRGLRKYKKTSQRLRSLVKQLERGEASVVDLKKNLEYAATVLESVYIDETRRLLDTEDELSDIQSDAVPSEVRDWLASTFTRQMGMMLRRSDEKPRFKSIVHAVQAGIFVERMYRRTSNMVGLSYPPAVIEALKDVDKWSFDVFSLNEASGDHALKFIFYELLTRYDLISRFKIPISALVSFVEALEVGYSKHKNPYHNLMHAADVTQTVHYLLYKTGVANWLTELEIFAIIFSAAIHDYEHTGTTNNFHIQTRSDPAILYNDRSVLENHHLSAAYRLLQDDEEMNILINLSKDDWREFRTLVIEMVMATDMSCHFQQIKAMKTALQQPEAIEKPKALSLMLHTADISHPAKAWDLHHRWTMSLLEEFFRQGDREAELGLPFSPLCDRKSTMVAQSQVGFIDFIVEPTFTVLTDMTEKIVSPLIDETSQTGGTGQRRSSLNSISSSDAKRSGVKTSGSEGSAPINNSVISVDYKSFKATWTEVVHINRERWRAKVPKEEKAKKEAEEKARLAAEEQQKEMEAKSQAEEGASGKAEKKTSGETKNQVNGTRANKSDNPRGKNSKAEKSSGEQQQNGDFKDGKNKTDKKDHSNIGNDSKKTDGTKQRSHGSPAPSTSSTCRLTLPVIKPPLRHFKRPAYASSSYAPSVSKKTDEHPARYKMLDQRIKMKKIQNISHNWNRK

SMILES: CCOc1ncccc1-c1cc(NC2CCOCC2)c2c(cnn2C(C)C)n1 [Example 10, 5-(2-ethoxy-3-pyridyl)-1-isopropyl-N-tetrahydropyran-4-yl-pyrazolo[4,3-b]pyridin-7-amine]
- inhibition at 10 µM (PDE1A): 71%
- IC50 (PDE1B): 0.126 µM
- IC50 (PDE1C): 2.67 µM

SMILES: CCOc1ncccc1-c1cc(NC(C)C)c2c(cnn2C(C)C)n1 [Example 12, 5-(2-ethoxy-3-pyridyl)-N,1-diisopropyl-pyrazolo[4,3-b]pyridin-7-amine]
- IC50 (PDE1A): 1.12 µM
- IC50 (PDE1B): 0.108 µM
- IC50 (PDE1C): 2.23 µM

SMILES: CCOc1ncccc1-c1cc(NC)c2c(cnn2C(C)C)n1 [Example 13, 5-(2-ethoxy-3-pyridyl)-1-isopropyl-N-methyl-pyrazolo[4,3-b]pyridin-7-amine]
- IC50 (PDE1A): 1.03 µM
- IC50 (PDE1B): 0.085 µM
- IC50 (PDE1C): 1.06 µM

SMILES: CCOc1ncccc1-c1cc(N2CCCC2)c2c(cnn2C)n1 [Example 14, 5-(2-ethoxy-3-pyridyl)-1-methyl-7-pyrrolidin-1-yl-pyrazolo[4,3-b]pyridine]
- IC50 (PDE1A): 1.09 µM
- IC50 (PDE1B): 0.64 µM
- IC50 (PDE1C): 3.5 µM

SMILES: CCOc1ncccc1-c1nc2c(C)nn(CC)c2cc1C [Example 15, 5-(2-ethoxy-3-pyridyl)-1-ethyl-3,6-dimethyl-pyrazolo[4,3-b]pyridine]
- IC50 (PDE1A): 1.01 µM
- IC50 (PDE1B): 0.156 µM
- IC50 (PDE1C): 1.89 µM

SMILES: CCOc1ncccc1-c1cc(N2CCCC2)c2c(cnn2CC)n1 [Example 16, 5-(2-ethoxy-3-pyridyl)-1-ethyl-7-pyrrolidin-1-yl-pyrazolo[4,3-b]pyridine]
- IC50 (PDE1A): 0.461 µM
- IC50 (PDE1B): 0.129 µM
- IC50 (PDE1C): 1.81 µM

SMILES: CCOc1ncccc1-c1cc(N2CCCC2)c2c(cnn2C(C)C)n1 [Example 17, 5-(2-ethoxy-3-pyridyl)-1-isopropyl-7-pyrrolidin-1-yl-pyrazolo[4,3-b]pyridine]
- IC50 (PDE1A): 0.353 µM
- IC50 (PDE1B): 0.083 µM
- inhibition at 1 µM (PDE1C; @ 1 μM compound, read-out: PDE1 C, % inhibition @ 1 μM): 50%

SMILES: CCCn1ncc2nc(-c3cccnc3OCC)cc(N3CCCC3)c21 [Example 18, 5-(2-ethoxy-3-pyridyl)-1-propyl-7-pyrrolidin-1-yl-pyrazolo[4,3-b]pyridine]
- IC50 (PDE1A): 0.637 µM
- IC50 (PDE1B): 0.336 µM
- inhibition at 10 µM (PDE1C): 64%

SMILES: CC(C)n1ncc2nc(-c3cccnc3)cc(N[C@@H]3CCOC3)c21 [Example 25, 1-isopropyl-5-(3-pyridyl)-N-[(3R)-tetrahydrofuran-3-yl]pyrazolo[4,3-b]pyridin-7-amine]
- IC50 (PDE1A): 2.16 µM
- IC50 (PDE1B): 0.648 µM
- inhibition at 10 µM (PDE1C): 65%

SMILES: CC(C)n1ncc2nc(-c3ccccc3)cc(N[C@@H]3CCOC3)c21 [Example 27, 1-isopropyl-5-phenyl-N-[(3R)-tetrahydrofuran-3-yl]pyrazolo[4,3-b]pyridin-7-amine]
- IC50 (PDE1A): 2 µM
- IC50 (PDE1B): 0.69 µM
- IC50 (PDE1C): 3.55 µM

SMILES: CC(C)n1ncc2nc(-c3cccc4c3OCO4)cc(N[C@@H]3CCOC3)c21 [Example 32, 5-(1,3-benzodioxol-4-yl)-1-isopropyl-N-[(3R)-tetrahydrofuran-3-yl]pyrazolo[4,3-b]pyridin-7-amine]
- IC50 (PDE1A): 1.29 µM
- IC50 (PDE1B): 0.284 µM
- IC50 (PDE1C): 1.2 µM

SMILES: CCOc1ccc(-c2cc(N[C@@H]3CCOC3)c3c(cnn3C(C)C)n2)cc1 [Example 33, 5-(4-ethoxyphenyl)-1-isopropyl-N-[(3R)-tetrahydrofuran-3-yl]pyrazolo[4,3-b]pyridin-7-amine]
- inhibition at 10 µM (PDE1A): 20%
- inhibition at 10 µM (PDE1B; @ 10 μM compound, read-out: PDE1 B, % inhibition @ 10 μM): 46%
- inhibition at 10 µM (PDE1C): 24%

SMILES: CC(C)n1ncc2nc(-c3cnn4ccccc34)cc(N[C@@H]3CCOC3)c21 [Example 35, 1-isopropyl-5-pyrazolo[1,5-a]pyridin-3-yl-N-[(3R)-tetrahydrofuran-3-yl]pyrazolo[4,3-b]pyridin-7-amine]
- IC50 (PDE1A): 1.62 µM
- IC50 (PDE1B): 0.604 µM
- IC50 (PDE1C): 2.14 µM

SMILES: CC(C)n1ncc2nc(-c3cccnc3OC(C)(C)C)cc(N[C@@H]3CCOC3)c21 [Example 36, 5-(2-tert-butoxy-3-pyridyl)-1-isopropyl-N-[(3R)-tetrahydrofuran-3-yl]pyrazolo[4,3-b]pyridin-7-amine]
- IC50 (PDE1A): 0.26 µM
- IC50 (PDE1B): 0.091 µM
- IC50 (PDE1C): 3.23 µM

SMILES: COc1cccc(Cc2cc(N[C@@H]3CCOC3)c3c(cnn3C(C)C)n2)c1 [Example 37, 1-isopropyl-5-[(3-methoxyphenyl)methyl]-N-[(3R)-tetrahydrofuran-3-yl]pyrazolo[4,3-b]pyridin-7-amine]
- inhibition at 10 µM (PDE1A): 60%
- IC50 (PDE1B): 1.34 µM
- IC50 (PDE1C): 1.68 µM

SMILES: CC(C)n1ncc2nc(-c3ccccc3C#N)cc(N[C@@H]3CCOC3)c21 [Example 41, 2-[1-isopropyl-7-[[(3R)-tetrahydrofuran-3-yl]amino]pyrazolo[4,3-b]pyridin-5-yl]benzonitrile]
- IC50 (PDE1A): 0.951 µM
- IC50 (PDE1B): 0.248 µM
- IC50 (PDE1C): 1.71 µM

SMILES: CC(C)n1ncc2nc(-c3cccc4c3OCCO4)cc(N[C@@H]3CCOC3)c21 [Example 42, 5-(2,3-dihydro-1,4-benzodioxin-5-yl)-1-isopropyl-N-[(3R)-tetrahydrofuran-3-yl]pyrazolo[4,3-b]pyridin-7-amine]
- IC50 (PDE1A): 1.57 µM
- IC50 (PDE1B): 0.546 µM
- inhibition at 10 µM (PDE1C): 68%

SMILES: CC(C)n1ncc2nc(Cc3ccc(F)cc3)cc(N[C@@H]3CCOC3)c21 [Example 43, 5-[(4-fluorophenyl)methyl]-1-isopropyl-N-[(3R)-tetrahydrofuran-3-yl]pyrazolo[4,3-b]pyridin-7-amine]
- IC50 (PDE1A): 2.86 µM
- IC50 (PDE1B): 1.22 µM
- IC50 (PDE1C): 0.621 µM

Results, then the compound that gave them:

- inhibition at 10 µM (PDE1A): 54%
- IC50 (PDE1B): 3.65 µM
- inhibition at 10 µM (PDE1C): 70%
SMILES: CC(C)n1ncc2nc(-c3cncnc3)cc(N[C@@H]3CCOC3)c21 [Example 26, 1-isopropyl-5-pyrimidin-5-yl-N-[(3R)-tetrahydrofuran-3-yl]pyrazolo[4,3-b]pyridin-7-amine]

- IC50 (PDE1A): 0.533 µM
- IC50 (PDE1B): 0.124 µM
- IC50 (PDE1C): 1.08 µM
SMILES: COc1ncccc1-c1cc(N[C@@H]2CCOC2)c2c(cnn2C(C)C)n1 [Example 28, 1-isopropyl-5-(2-methoxy-3-pyridyl)-N-[(3R)-tetrahydrofuran-3-yl]pyrazolo[4,3-b]pyridin-7-amine]

- inhibition at 10 µM (PDE1A): 31%
- IC50 (PDE1B): 1.69 µM
- inhibition at 10 µM (PDE1C): 68%
SMILES: COc1nc(C)ccc1-c1cc(N[C@@H]2CCOC2)c2c(cnn2C(C)C)n1 [Example 29, 1-isopropyl-5-(2-methoxy-6-methyl-3-pyridyl)-N-[(3R)-tetrahydrofuran-3-yl]pyrazolo[4,3-b]pyridin-7-amine]

- IC50 (PDE1A): 1.55 µM
- IC50 (PDE1B): 0.236 µM
- IC50 (PDE1C): 2.56 µM
SMILES: COc1cnccc1-c1cc(N[C@@H]2CCOC2)c2c(cnn2C(C)C)n1 [Example 30, 1-isopropyl-5-(3-methoxy-4-pyridyl)-N-[(3R)-tetrahydrofuran-3-yl]pyrazolo[4,3-b]pyridin-7-amine]

- inhibition at 10 µM (PDE1A): 63%
- IC50 (PDE1B): 1.23 µM
- inhibition at 10 µM (PDE1C): 76%
SMILES: COc1ccncc1-c1cc(N[C@@H]2CCOC2)c2c(cnn2C(C)C)n1 [Example 31, 1-isopropyl-5-(4-methoxy-3-pyridyl)-N-[(3R)-tetrahydrofuran-3-yl]pyrazolo[4,3-b]pyridin-7-amine]

- IC50 (PDE1A): 0.38 µM
- IC50 (PDE1B): 0.157 µM
- IC50 (PDE1C): 0.58 µM
SMILES: CCOc1nccc(C)c1-c1cc(N[C@@H]2CCOC2)c2c(cnn2C(C)C)n1 [Example 34, 5-(2-ethoxy-4-methyl-3-pyridyl)-1-isopropyl-N-[(3R)-tetrahydrofuran-3-yl]pyrazolo[4,3-b]pyridin-7-amine]

- IC50 (PDE1A): 1.16 µM
- IC50 (PDE1B): 0.308 µM
- IC50 (PDE1C): 0.566 µM
SMILES: COc1cc(-c2cc(N[C@@H]3CCOC3)c3c(cnn3C(C)C)n2)c(OC)cn1 [Example 38, 5-(2,5-dimethoxy-4-pyridyl)-1-isopropyl-N-[(3R)-tetrahydrofuran-3-yl]pyrazolo[4,3-b]pyridin-7-amine]

- inhibition at 10 µM (PDE1A): 61%
- IC50 (PDE1B): 1.89 µM
- inhibition at 10 µM (PDE1C): 59%
SMILES: Cc1cccnc1-c1cc(N[C@@H]2CCOC2)c2c(cnn2C(C)C)n1 [Example 39, 1-isopropyl-5-(3-methyl-2-pyridyl)-N-[(3R)-tetrahydrofuran-3-yl]pyrazolo[4,3-b]pyridin-7-amine]

- inhibition at 10 µM (PDE1A): 81%
- IC50 (PDE1B): 2.14 µM
- inhibition at 10 µM (PDE1C): 26%
SMILES: COc1cccnc1-c1cc(N[C@@H]2CCOC2)c2c(cnn2C(C)C)n1 [Example 40, 1-isopropyl-5-(3-methoxy-2-pyridyl)-N-[(3R)-tetrahydrofuran-3-yl]pyrazolo[4,3-b]pyridin-7-amine]

- inhibition at 10 µM (PDE1A): 33%
- IC50 (PDE1B): 4.01 µM
- inhibition at 10 µM (PDE1C): 47%
SMILES: CC(C)n1ncc2nc(-c3cncc(C#N)c3)cc(N[C@@H]3CCOC3)c21 [Example 44, 5-[1-isopropyl-7-[[(3R)-tetrahydrofuran-3-yl]amino]pyrazolo[4,3-b]pyridin-5-yl]pyridine-3-carbonitrile]

- IC50 (PDE1A): 2.48 µM
- IC50 (PDE1B): 0.341 µM
- inhibition at 10 µM (PDE1C): 72%
SMILES: COCc1cccc(-c2cc(N[C@@H]3CCOC3)c3c(cnn3C(C)C)n2)c1 [Example 45, 1-isopropyl-5-[3-(methoxymethyl)phenyl]-N-[(3R)-tetrahydrofuran-3-yl]pyrazolo[4,3-b]pyridin-7-amine]
